The results in this text go back to patent publication US8623429B2, “Stabilized anthocyanin compositions” (Omnica GmbH, priority 2007, dated 2014).

This data set can be described thus: Example 6: stability of free anthocyanidins delphinidin and malvidin at 37° C., pH 7.0, with/without GSH (HPLC). It is filed as physicochemical. As to conditions: pH 7.0, 37° C. Here is the method: Sample a) 5 mg delphinine chloride (0.015 mmol) was transferred into a 100 ml flask, dissolved in 1 ml methanol and filled to volume with sodium phosphate buffer (5% [w/w], pH=7.0). The sample was kept with stirring at 37° C. Samples were taken immediately after dissolution, after 15 minutes, 1, 2, and 3 hours of incubation. The samples were acidified with formic acid to pH=1.0 and analyzed by HPLC.
Sample b) 5 mg malvidin chloride (0.014 mmol) was transferred into a 100 ml flask, dissolved in 1 ml methanol and filled to volume with sodium phosphate buffer (5% [w/w], pH=7.0). The sample was kept with stirring at 37° C. Samples were taken immediately after dissolution and at 1, 2, and 3 hours of incubation. The samples were acidified with formic acid to pH=1.0 and analyzed by HPLC.
Sample c) 5 mg delphinidine chloride (0.015 mmol) and 10 mg GSH (0.032 mmol) were transferred into a 100 ml flask, dissolved in 1 ml methanol and filled to volume with sodium phosphate buffer (5% [w/w], pH=7.0). The sample was kept with stirring at 37° C. Samples were taken at 15 minutes after dissolution and after 1, 2 and 3 hours of incubation. The samples were acidified with formic acid to pH=1.0 and analyzed by HPLC.
Sample d) 5 mg malvidin chloride (0.014 mmol) and 10 mg GSH (0.032 mmol) were transferred into a 100 ml flask, dissolved in 1 ml methanol and filled to volume with sodium phosphate buffer (5% [w/w], pH=7.0). The sample was kept with stirring at 37° C. Samples were taken 15 minutes after dissolution and after 1, 2 and 3 hours of incubation. The samples were acidified with formic acid to pH=1.0 and analyzed by HPLC.
Samples were prepared as outlined below in HPLC Analytical Method. Test stability samples were immediately acidified (to block degradation) and injected undiluted following the detailed description provided below.

As to `Oc1cc(O)c2cc(O)c(-c3cc(O)c(O)c(O)c3)[o+]c2c1` [Delphinidin], the “Peak Area” value is recorded as 48.6 (Blank, 0 hours); “BLD” (Blank, 0.25 hours); “BLD” (Blank, 1 hour); “BLD” (Blank, 2 hours); “BLD” (Blank, 3 hours); “BLD” (GSH 10 mg, 0.25 hours). Also, the “Peak Area” value reads like this: (GSH 10 mg, 1 hour) “BLD”; (GSH 10 mg, 2 hours) “BLD”; (GSH 10 mg, 3 hours) “BLD”.

`COc1cc(-c2[o+]c3cc(O)cc(O)c3cc2O)cc(OC)c1O.[Cl-]` [Malvidin]: the “Peak Area” value is 1228 (Blank, 0 hours); 661.6 (Blank, 1 hour); 175.3 (Blank, 2 hours); 56.4 (Blank, 3 hours); 530.1 (GSH 10 mg, 1 hour); 263.5 (GSH 10 mg, 2 hours). The “Peak Area” value (GSH 10 mg, 3 hours) turned out to be 5.6.
